Test system: HIV-1 Gag expression
Assay: HIV-1 Gag-GFP expression in HeLa rtTA-HIV(Gag-GFP) cells
Assay type: cell-based
Settings: 220 nM
Procedure: Figure 7 Activation of the MEK1/2-ERK1/2 signaling pathway suppresses HIV-1 gene expression. HeLa rtTA-HIV(Gag-GFP) cells were pre-treated overnight (~15 h) with/without an inhibitor of MEK1/2 (12 μM U0126, MEKi, white), p38α/β/β2 (15 μM SB203580, p38i, light gray), JNK1/2/3 (1.25 μM SP600125, JNKi, hatched), or NCX (5 μM KB-R7943, NCXi, gray) and treated with a MEK1/2-ERK1/2 activator, anisomycin, to isolate the pathway signal as described (and run in parallel for verification of inhibitor activity) in Figures 6 and 5d–f. Cells were monitored for HIV-1 gene expression by detecting Gag-GFP fluorescence in cell lysates (35 μg) resolved on reducing SDS-PAGE, levels of ERK activation by immunoblotting of phospho- and total-ERK from cell lysates, and extent of viral RNA expression by qRT-PCR of mRNAs extracted. […] RNAs were quantified by qRT-PCR as described in Figures 4a,b. […]
Using the same methods and conditions described for HeLa rtTA-HIV-ΔMls cells, HeLa rtTA-HIV(Gag-GFP) cells were seeded in 48-/12-well plates and pretreated with/without pathway inhibitor prior to treatment with drug/compounds and Dox. […] HIV-1 gene expression was determined by detecting Gag-GFP fluorescence in cells by plate scans using a Typhoon Imager 9400 (Amersham Biosciences) or Typhoon FLA 9400 (GE) on ImageQuant, cell lysates by SDS-PAGE captured on ChemiDoc MP, or cell lysates by p24^CA ELISA. […]

## COc1ccc(C[C@H]2NC[C@H](O)[C@H]2OC(C)=O)cc1 [anisomycin, Anisomycin]
  HIV-1 Gag expression: inhibited
